# From patent publication US20220218639A1
# Values joined by “and” are separate entries in the source; they are usually repeats but may differ in a detail not shown here. Identical values can stand only once.
# What was measured:
# δ-plasmin = target: T1, δ-plasmin (Homo sapiens, UniProt P00747, DEL181-559); assay: S-2251 inhibition assay (Dixon plot), δ-plasmin; assay type: biochemical; conditions: for mode of inhibition (δ-plasmin): Dixon plot with S/Vo vs I plot; for Ki: Dixon plot, S-2251 100, 350, 750 μM, enzyme 1.0 μg/mL, PBS pH 7.4, unit inferred; for Pen X-Fold inhibition (Delta Plasmin): Ki of the inhibitor relative to Ki of pentamidine
# T1 construct: made in house; host or cells: E. coli (T7 expression system, pET 24b(+))
# T1 sequence (P00747 with tags, fused parts or gaps K528E/G536N/V538P/G539Q/N547D/R549E/L551R/V557I/P558L/Q559E): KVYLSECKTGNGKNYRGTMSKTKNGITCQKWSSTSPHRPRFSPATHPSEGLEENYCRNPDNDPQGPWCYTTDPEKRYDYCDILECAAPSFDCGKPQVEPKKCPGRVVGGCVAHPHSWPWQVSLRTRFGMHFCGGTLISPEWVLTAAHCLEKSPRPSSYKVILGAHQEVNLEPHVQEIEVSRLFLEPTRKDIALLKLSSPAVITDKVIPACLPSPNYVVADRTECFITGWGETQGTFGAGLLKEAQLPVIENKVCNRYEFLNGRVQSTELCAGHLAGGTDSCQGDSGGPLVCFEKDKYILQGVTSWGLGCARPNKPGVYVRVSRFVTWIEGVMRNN
# plasmin [1] = target: T2, plasmin (Homo sapiens, UniProt P00747); assay: S-2251 inhibition assay (Dixon plot), plasmin; assay type: biochemical; set-up: purchased Sigma-Aldrich; conditions: for mode of inhibition (plasmin): Dixon plot with S/Vo vs I plot; for Ki: Dixon plot, S-2251 100, 350, 750 μM, enzyme 1.0 μg/mL, PBS pH 7.4, unit inferred; for Pen X-Fold inhibition (Plasmin): Ki of the inhibitor relative to Ki of pentamidine
# T2 sequence (P00747 581-810 limits assumed): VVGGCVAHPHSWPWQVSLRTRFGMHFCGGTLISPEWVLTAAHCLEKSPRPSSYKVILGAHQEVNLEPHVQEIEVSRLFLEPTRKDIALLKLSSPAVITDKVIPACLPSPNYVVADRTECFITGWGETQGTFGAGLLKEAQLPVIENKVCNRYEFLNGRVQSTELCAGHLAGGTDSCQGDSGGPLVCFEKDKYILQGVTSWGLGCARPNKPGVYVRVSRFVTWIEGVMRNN
# T2 sequence (P00747 97-580 partner limits assumed): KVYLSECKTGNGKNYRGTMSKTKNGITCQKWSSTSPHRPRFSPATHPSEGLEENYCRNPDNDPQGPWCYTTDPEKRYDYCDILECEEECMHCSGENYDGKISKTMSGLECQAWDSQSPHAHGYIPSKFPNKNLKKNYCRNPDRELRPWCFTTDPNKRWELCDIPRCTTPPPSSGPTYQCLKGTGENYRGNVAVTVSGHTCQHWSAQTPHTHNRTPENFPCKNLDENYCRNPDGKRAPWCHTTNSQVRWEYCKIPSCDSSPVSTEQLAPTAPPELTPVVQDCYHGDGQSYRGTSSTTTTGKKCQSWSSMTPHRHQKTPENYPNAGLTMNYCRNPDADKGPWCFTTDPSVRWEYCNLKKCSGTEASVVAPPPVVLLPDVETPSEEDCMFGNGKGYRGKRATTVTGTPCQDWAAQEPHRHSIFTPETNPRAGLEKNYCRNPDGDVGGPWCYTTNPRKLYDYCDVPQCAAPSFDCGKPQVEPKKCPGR
# [2] = Enzyme kinetics with S-2251 chromogenic substrate (Lineweaver-Burke plot); assay type: biochemical; set-up: Kcat: unit not given here; conditions: for Kcat: S-2251 substrate, PBS pH 7.4, unit not given
# Protocol: Enzyme Kinetic and Inhibition Assays. All enzymatic assays were conducted in phosphate buffered saline (PBS, pH 7.4) at 25° C. on a Molecular Devices SpectraMax Plus 96 well plate reader. The S-2251 assay took advantage of a shift in absorbance of the substrate upon cleaving that could be monitored at a wavelength of 405 nm to determine enzyme kinetics as well as competitive inhibition Ki values for plasmin and its derivatives. […] Initial velocities were determined by the slope of the first 60 seconds of reaction with the S-2251 substrate. All experiments were carried out in triplicate and data represents means plus or minus standard deviations.
# In this Example, the predicted kinetic characteristics of plasmin and delta-plasmin were compared. KM, Vmax and Kcat were determined for both full length plasmin and delta plasmin using a Lineweaver-Burke plot in which the concentration of plasmin was held constant across a range of S-2251 substrate concentrations (0-750 μM). Initial velocities for each data point were determined by the slope of the first 60 seconds of reaction with the S-2251 substrate following absorbance at 405 nm.
# The Km and Kcat for the two forms of plasmin were determined utilizing an S2251 chromogenic substrate.
# blood clots = assay: Clot digestion assay in serum; conditions: 50% serum, 2 hours room temp, background-corrected
# Protocol: In this Example, blood clot digestion by nanoparticles prepared using 4-carboxybenzamidine conjugated micelles and delta plasmin was analyzed in both PBS and serum.
# Fresh blood was drawn and clotted in glass tubes at 37° C. for 1.5 hours. Clots were then cut, excess liquid was removed via light blotting, and weighed to produce clots of ˜600 mg size. Clots were then transferred to phosphate buffered saline (PBS at pH 7.4) or serum. […] After incubation, the blood clots were again lightly blotted and weighed. Experimental parameters are summarized in Table 3 for the clot digestion assay performed in serum.
# plasmin [3] = target: T2, plasmin; assay: Fluorescence titration dissociation constant (Kd) assay; assay type: binding; set-up: purchased Sigma-Aldrich; host or cells: human plasma; conditions: emission 370 nm, PBS pH 7.4, no S-2251; unit inferred; read-out: Kd by fluorescence titration (PB Fl Ki)
# Protocol: Fluorescence Titration Dissociation Constant (Kd) Assay. Plasmin was titrated with increasing concentrations of 4-aminobenzamidine from 0-1000 μM in PBS buffer at pH 7.4. By monitoring the increase in fluorescence emission (excitation 280 nm, emission at 370 nm) from 4-aminobenzamdine associated plasmin, a direct determination of its dissociation constant (Kd) can be made. Fitting the data to a sigmoid the Kd value for 4-aminobenzamidine to sigma plasmin is the concentration of inhibitor at which 50% (or 0.5 or half maximum fluorescent emission is reached) intersects with the fit.
# Fluorescent titration assay was carried out as described above for determining the Kd, which is the same as the Ki in the case of competitive inhibition, for the 4-aminobenzamidine derivative to plasmin in the absence of the S-2251 substrate.
# p-Aminobenzamidine's fluorescent properties enable the implementation of a fluorescent titration assay to directly determine its binding affinity to plasmin. […] At a constant plasmin concentration, increasing amounts of p-aminobenzamidine were titrated into the sample monitoring the fluorescence emission at 370 nm (FIG. 10A).
Compound,mode of inhibition (δ-plasmin) (δ-plasmin),Ki (δ-plasmin),Pen X-Fold inhibition (Delta Plasmin) (δ-plasmin),mode of inhibition (plasmin) (plasmin [1]),Ki (plasmin [1]),Pen X-Fold inhibition (Plasmin) (plasmin [1]),Kd (plasmin [3]),"Vmax ([2]; S-2251 0-750 μM, PBS pH 7.4, 25° C.)","Km ([2]; S-2251 0-750 μM, PBS pH 7.4, 25° C., unit inferred)",Kcat [2],Kcat ([2]; listed as δ-plasmin),clot digestion (blood clots),stronger inhibition than the next best inhibitor (delta plasmin) (δ-plasmin; from Ki values),stronger inhibition than the next best inhibitor (plasmin) (plasmin [1]; from Ki values)
Delta Plasmin: Recombinant plasmin variant with K2-K5 deleted; kringle 1 linked directly with the catalytic domain (SEQ ID NO:2 zymogen),,,,,,,,19.5,325 ± 8.43 µM,778.2,778.21±1.51,7.175%,,
N=C(N)c1ccccc1 [Benzamidine],purely competitive,,,purely competitive,,,,,,,,,,
N=C(N)c1ccc(OCCCCCOc2ccc(C(=N)N)cc2)cc1 [Pentamidine],primarily competitive,,,primarily competitive,< 4 µM and 2.2 µM,,,,,,,,> 15 fold,> 15 fold

# More lines, main results first:
mode of inhibition (δ-plasmin) (δ-plasmin),Ki (δ-plasmin),Pen X-Fold inhibition (Delta Plasmin) (δ-plasmin),mode of inhibition (plasmin) (plasmin [1]),Ki (plasmin [1]),Pen X-Fold inhibition (Plasmin) (plasmin [1]),Kd (plasmin [3]),Compound,"Vmax ([2]; S-2251 0-750 μM, PBS pH 7.4, 25° C.)","Km ([2]; S-2251 0-750 μM, PBS pH 7.4, 25° C., unit inferred)",Kcat [2],Kcat ([2]; listed as δ-plasmin),clot digestion (blood clots),stronger inhibition than the next best inhibitor (delta plasmin) (δ-plasmin; from Ki values),stronger inhibition than the next best inhibitor (plasmin) (plasmin [1]; from Ki values)
purely competitive,302 ± 19.2 µM,75.8,purely competitive,292 µM and 293 µM,134.2,,N=C(N)c1ccc(C(=O)O)cc1 [4-Carboxybenzamidine],,,,,,,
purely competitive,> 1000 µM and 1410 µM,353.8,purely competitive,> 1000 µM and 1070 µM,493.0,,N=C(N)c1ccc(CN)cc1 [4-Aminomethyl Benzamidine],,,,,,,
purely competitive,60.6 ± 6.72 µM,15.2,purely competitive,51.9 ± 2.38 µM,23.8,53.5 ± 4.42 µM,N=C(N)c1ccc(N)cc1 [4-Aminobenzamidine],,,,,,,
